Experimental data from US12428406B2 (PMV Pharmaceuticals, Inc., priority 2019, dated 2025).

biological target: T1, p53 Y220C (Homo sapiens, UniProt P04637, Y220C); experiment: In vitro DNA binding activity assay (HTRF / TR-FRET): stabilization of p53 Y220C and increase of its DNA binding activity; assay type: biochemical; settings: recombinant His-tagged p53 Y220C DNA binding domain (aa 94-312), biotin-labeled consensus DNA, incubated at 27° C. or 29° C. for 60 min
T1 construct: The recombinant protein was a truncation mutant containing only amino acids 94-312 of p53; made in house; host or cells: E. coli
In short: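 Stabilization of the mutant is inferred from increased binding of His-tagged p53 Y220C to a biotin-labeled consensus DNA, detected by HTRF with europium-streptavidin and APC-anti-His antibody. The concentration giving a 50% rise over compound-free binding is reported as SC150.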

T1 sequence (P04637 94-312, change not shown): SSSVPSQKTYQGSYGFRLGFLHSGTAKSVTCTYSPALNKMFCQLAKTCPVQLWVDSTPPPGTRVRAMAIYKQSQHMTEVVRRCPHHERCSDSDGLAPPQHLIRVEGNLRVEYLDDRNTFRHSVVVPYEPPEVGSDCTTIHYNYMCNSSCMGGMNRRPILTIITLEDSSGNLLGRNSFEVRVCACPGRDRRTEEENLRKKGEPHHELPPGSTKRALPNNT

SMILES | SC150 (concentration of the compound required to increase the DNA binding activity by 50%)
COc1cc(S(N)(=O)=O)ccc1NCC#Cc1cc2c(N[C@H]3CC[C@H](N4CCC5(CC4)COC5)CC3)cccc2n1CC(F)(F)F [Compound 377A, 3-methoxy-4-{[3-(4-{[(1R,4R)-4-{2-oxa-7-azaspiro[3.5]nonan-7-yl}cyclohexyl]amino}-1-(2,2,2-trifluoroethyl)-1H-indol-2-yl)prop-2-yn-1-yl]amino}benzene-1-sulfonamide] | + (+ = 0 μM ≤ SC150 < 0.05 μM)
COc1cc(S(C)(=O)=O)ccc1NCC#Cc1cc2c(N[C@H]3CC[C@H](N4CC[S+]([O-])CC4)CC3)cccc2n1CC(F)(F)F [Compound 364A, 4-[(1R,4R)-4-[(2-{3-[(4-methanesulfonyl-2-methoxyphenyl)amino]prop-1-yn-1-yl}-1-(2,2,2-trifluoroethyl)-1H-indol-4-yl)amino]cyclohexyl]-1λ^4-thiomorpholin-1-one] | + (+ = 0 μM ≤ SC150 < 0.05 μM)
COCC(O)CN1CCC(Nc2cccc3c2cc(C#CCOc2ccc(S(C)(=O)=O)cc2N)n3CC(F)(F)F)CC1 (stereo not drawn) [Compound 646A, 1-[4-((2-[3-(2-amino-4-methanesulfonylphenoxy)prop-1-yn-1-yl]-1-(2,2,2-trifluoroethyl)-1H-indol-4-yl}amino)piperidin-1-yl]-3-methoxypropan-2-ol] | + (+ = 0 μM ≤ SC150 < 0.05 μM)
COc1cc(S(N)(=O)=O)ccc1NCC#Cc1cc2c(N[C@H]3CC[C@H](N4CCC(S(C)(=O)=O)CC4)CC3)cccc2n1CC(F)(F)F [Compound 446A, 3-methoxy-4-{[3-(4-{[(1R,4R)-4-(4-methanesulfonyl-piperidin-1-yl)cyclo-hexyl]amino}-1-(2,2,2-trifluoroethyl)-1H-indol-2-yl)prop-2-yn-1-yl]amino}benzene-1-sulfonamide] | + (+ = 0 μM ≤ SC150 < 0.05 μM)
COCC(O)CN1CCCC(Nc2cccc3c2cc(C#CCNc2ccc(S(C)(=O)=O)cc2OC)n3CC(F)(F)F)CC1 (stereo not drawn) [Compound 989A, 1-{4-[(2-{3-[(4-methanesulfonyl-2-methoxyphenyl)amino]prop-1-yn-1-yl}-1-(2,2,2-trifluoroethyl)-1H-indol-4-yl)amino]azepan-1-yl}-3-methoxypropan-2-ol] | + (+ = 0 μM ≤ SC150 < 0.05 μM)
N#CCOc1cc(S(N)(=O)=O)ccc1NCC#Cc1cc2c(N[C@H]3CC[C@H](N4CCC5(CC4)COC5)CC3)cccc2n1CC(F)(F)F [Compound 379A, 3-(cyanomethoxy)-4-{[3-(4-{[(1R,4R)-4-{2-oxa-7-azaspiro[3.5]nonan-7-yl}cyclohexyl]amino}-1-(2,2,2-trifluoroethyl)-1H-indol-2-yl)prop-2-yn-1-yl]amino}benzene-1-sulfonamide] | + (+ = 0 μM ≤ SC150 < 0.05 μM)
CCN(CC)[C@H]1CC[C@H](Nc2cccc3c2cc(C#CCNc2ccc(S(N)(=O)=O)cc2OC)n3CC(F)(F)F)CC1 [Compound 146A, 3-methoxy-4-{[3-(4-{[(1R,4R)-4-(diethyl-amino)cyclohexyl]amino}-1-(2,2,2-trifluoroethyl)-1H-indol-2-yl)prop-2-yn-1-yl]amino}benzene-1-sulfonamide] | + (+ = 0 μM ≤ SC150 < 0.05 μM)
CS(=O)(=O)c1ccc(NCC#Cc2cc3c(NC4CCOCC4)cccc3n2CC(F)(F)F)c(OC(F)(F)F)c1 [Compound 991A, 2-(3-{[4-methanesulfonyl-2-(trifluoromethoxy)phenyl]amino}prop-1-yn-1-yl)-N-(oxan-4-yl)-1-(2,2,2-trifluoroethyl)-1H-indol-4-amine] | + (+ = 0 μM ≤ SC150 < 0.05 μM)
COc1cc(S(C)(=O)=O)ccc1NCC#Cc1cc2c(N[C@H]3CN(C)CC[C@H]3O)cccc2n1CC(F)(F)F (racemic) [Compound 766A, rac-(3R,4S)-3-[(2-{3-[(4-methanesulfonyl-2-methoxyphenyl)amino]prop-1-yn-1-yl}-1-(2,2,2-trifluoroethyl)-1H-indol-4-yl)amino]-1-methylpiperidin-4-ol] | + (+ = 0 μM ≤ SC150 < 0.05 μM)
COc1cc(C(N)=O)ccc1NCC#Cc1cc2c(N[C@H]3CCN(C)C[C@H]3F)cccc2n1CC(F)(F)F [Compound 801A, 4-{[3-(4-{[(3R,4S)-3-fluoro-1-methylpiperidin-4-yl]amino}-1-(2,2,2-trifluoroethyl)-1H-indol-2-yl)prop-2-yn-1-yl]amino}-3-methoxybenzamide] | + (+ = 0 μM ≤ SC150 < 0.05 μM)
CN1CCC(Nc2cccc3c2cc(C#CCOc2ccc(S(C)(=O)=O)cc2N(C)C)n3CC(F)(F)F)CC1 [Compound 488A, 2-{3-[2-(dimethylamino)-4-methanesulfonylphenoxy]prop-1-yn-1-yl}-N-(1-methylpiperidin-4-yl)-1-(2,2,2-trifluoroethyl)-1H-indol-4-amine] | +++ (+++ = 0.1 μM ≤ SC150 < 0.2 μM)
COc1cc(S(C)(=O)=O)ccc1NCC#Cc1cc2c(NC3CC(CO)(CCl)C3)cccc2n1CC(F)(F)F (stereo not drawn) [Compound 19A, [1-(chloromethyl)-3-[(2-{3-[(4-methanesulfonyl-2-methoxyphenyl)amino]prop-1-yn-1-yl}-1-(2,2,2-trifluoroethyl)-1H-indol-4-yl)amino]cyclobutyl]methanol] | + (+ = 0 μM ≤ SC150 < 0.05 μM)
COc1cc(C(=O)O)ccc1NCC#Cc1cc2c(N[C@H]3CC[C@H](N4CC5(COC5)C4)CC3)cccc2n1CC(F)(F)F [Compound 279A, 4-((3-(4-(((1R,4R)-4-(2-oxa-6-azaspiro[3.3]heptan-6-yl)cyclohexyl)amino)-1-(2,2,2-trifluoroethyl)-1H-indol-2-yl)prop-2-yn-1-yl)amino)-3-methoxybenzoic acid] | + (+ = 0 μM ≤ SC150 < 0.05 μM)
CNS(=O)(=O)c1ccc(NCC#Cc2cc3c(NC4CCN(CC(O)COC)CC4)cccc3n2CC(F)(F)F)c(OC)c1 (stereo not drawn) [Compound 609A] | + (+ = 0 μM ≤ SC150 < 0.05 μM)
COCC(O)CN1CCC(Nc2cccc3c2cc(C#CCNc2ccc(S(C)(=O)=O)cc2OC)n3CC(F)F)CC1 (stereo not drawn) [Compound 709A, 1-(4-{[1-(2,2-difluoroethyl)-2-{3-[(4-methanesulfonyl-2-methoxyphenyl)amino]prop-1-yn-1-yl}-1H-indol-4-yl]amino}piperidin-1-yl)-3-methoxypropan-2-ol] | + (+ = 0 μM ≤ SC150 < 0.05 μM)
CN(C)[C@H]1CC[C@H](Nc2cccc3c2cc(C#CCNc2ccc(S(C)(=O)=O)cc2OC(F)(F)F)n3CC(F)(F)F)CC1 [Compound 142A] | + (+ = 0 μM ≤ SC150 < 0.05 μM)
COc1cc(S(N)(=O)=O)ccc1NCC#Cc1cc2c(NC3CCN(C(C)=O)CC3)cccc2n1CC(F)(F)F [Compound 749A, 4-[(3-{4-[(1-acetylpiperidin-4-yl)amino]-1-(2,2,2-trifluoroethyl)-1H-indol-2-yl}prop-2-yn-1-yl)amino]-3-methoxybenzene-1-sulfonamide] | + (+ = 0 μM ≤ SC150 < 0.05 μM)
COc1cc(Cl)ccc1NCC#Cc1cc2c(NC3CCN(C)CC3)cccc2n1CC(F)(F)F [Compound 512A, 2-{3-[(4-chloro-2-methoxyphenyl)amino]prop-1-yn-1-yl}-N-(1-methylpiperidin-4-yl)-1-(2,2,2-trifluoroethyl)-1H-indol-4-amine] | ++ (++ = 0.05 μM ≤ SC150 < 0.1 μM)
COc1cc(S(=O)(=O)N(C)CCO)ccc1NCC#Cc1cc2c(NC3CCN(CC(O)CO)CC3)cccc2n1CC(F)(F)F (stereo not drawn) [Compound 553A, 4-{[3-(4-{[1-(2,3-dihydroxypropyl)piperidin-4-yl]amino}-1-(2,2,2-trifluoroethyl)-1H-indol-2-yl)prop-2-yn-1-yl]amino}-N-(2-hydroxyethyl)-3-methoxy-N-methylbenzene-1-sulfonamide] | + (+ = 0 μM ≤ SC150 < 0.05 μM)
COc1cc(C(N)=O)ccc1NCC#Cc1cc2c(NC3CCN(C[C@@H](O)CO)CC3)cccc2n1CC(F)(F)F [Compound 583A] | + (+ = 0 μM ≤ SC150 < 0.05 μM)
CCN1CCC(Nc2cccc3c2cc(C#CCNc2ccc(S(C)(=O)=O)cc2OC)n3CC(F)(F)F)CC1 [Compound 537A] | + (+ = 0 μM ≤ SC150 < 0.05 μM)
COc1cc(C(=O)NCC(C)O)ccc1NCC#Cc1cc2c(N[C@@H]3CCN(C)C[C@@H]3F)cccc2n1CC(F)(F)F (stereo partly drawn) [Compound 1057A, 4-{[3-(4-{[(3S,4R)-3-fluoro-1-methylpiperidin-4-yl]amino}-1-(2,2,2-trifluoroethyl)-1H-indol-2-yl)prop-2-yn-1-yl]amino}-N-(2-hydroxypropyl)-3-methoxybenzamide] | + (+ = 0 μM ≤ SC150 < 0.05 μM)
CCC(=O)O[C@H](COC)CN1CCC(Nc2cccc3c2cc(C#CCNc2ccc(S(C)(=O)=O)cc2OC)n3CC(F)(F)F)CC1 [Compound 715A, (2S)-1-{4-[(2-{3-[(4-methanesulfonyl-2-methoxyphenyl)amino]prop-1-yn-1-yl}-1-(2,2,2-trifluoroethyl)-1H-indol-4-yl)amino]piperidin-1-yl}-3-methoxypropan-2-yl propanoate] | + (+ = 0 μM ≤ SC150 < 0.05 μM)
COc1cc(S(=O)(=O)Nc2ccon2)ccc1NCC#Cc1cc2c(NC3CCS(=O)(=O)CC3)cccc2n1CC(F)(F)F [Compound 1039A, 4-[(3-{4-[(1,1-dioxo-1λ^6-thian-4-yl)amino]-1-(2,2,2-trifluoroethyl)-1H-indol-2-yl}prop-2-yn-1-yl)amino]-3-methoxy-N-(1,2-oxazol-3-yl)benzene-1-sulfonamide] | + (+ = 0 μM ≤ SC150 < 0.05 μM)
